In assay [1] the test system is Peripheral blood mononuclear cells (PBMC). The conditions noted are these: Table 19, R x S; R6-5-D6 8 ng/ml, Azathioprine 1 ng/ml; no inhibitor 49,570.
Assay [2] has the same test system. The assay can be described thus: cells. The conditions noted are these: Homo sapiens.
The next assay deals with JY cells. Kind of assay: LFA-1 dependent aggregation of JY cells (qualitative and quantitative aggregation assays). The conditions noted are these: 50 ng/ml of PMA; quantitative assay, 200 rpm, 2 hours; SD = 8%, N = 6. The class given is cell-based. On the procedure: In order to assess the extent of cellular adhesion, aggregation assays were employed. Cell lines used in such assays were washed two times with RPMI 1640 medium containing 5 mM Hepes buffer (Sigma Chemical Co., St. Louis) and resuspended to a concentration of 2 x 10⁶ cells/ml. Added to flat-bottomed, 96-well microtiter plates (No. 3596; Costar, Cambridge, MA) were 50 »l of appropriate monoclonal antibody supernatant or 50 »l of complete medium with or without purified monoclonal antibodies, 50 »l of complete medium containing 200 ng/ml of the phorbol ester phorbol myristate acetate (PMA) and 100 »l of cells at a concentration of 2 x 10⁶ cells/ml in complete medium. This yielded a final concentration of 50 ng/ml PMA and 2 x 10⁵ cells/well. Cells were allowed to settle spontaneously, and the degree of aggregation was scored at various time points. […] In order to obtain a more quantitative estimate of cellular adhesion, reagents and cells were added to 5 ml polystyrene tubes in the same order as above. Tubes were placed in a rack on a gyratory shaker at 37°C. […] Percent aggregation was determined by the following equation: [formula] […]
As a second means of measuring adhesion, the quantitative assay described in Example 2 was used. […]

Another assay has as its system human dermal fibroblasts. The class given is cell-based. Here is the method:
The kinetics of interleukin 1 and gamma interferon effects on ICAM-1 expression on dermal fibroblasts were determined using the ¹²⁵I goat anti-mouse IgG binding assay of Dustin, M.L. et al. (J. Immunol. 137:245-254 (1986); which reference is herein incorporated by reference). To perform this binding assay, human dermal fibroblasts were grown in a 96-well microtiter plate to a density of 2-8 x 10⁴ cells/well (0.32 cm²). The cells were washed twice with RPMI 1640 medium supplemented as described in Example 1. The cells were additionally washed once with Hanks Balanced Salt Solution (HBSS), 10 mM HEPES, 0.05% NaN₃ and 10% heat-inactivated fetal bovine serum. Washing with this binding buffer was done at 4°C. To each well was added 50 »l of the above-described binding buffer and 50 »l of the appropriate hybridoma supernatant with X63 and W6/32 as the negative and positive controls, respectively. After incubation for 30 minutes at 4°C, with gentle agitation, the wells were washed twice with binding buffer, and the second antibody ¹²⁵I-goat anti-mouse IgG, was added at 50 nCi in 100 »l. The ¹²⁵I-goat anti-mouse antibody was prepared by using Iodogen (Pierce) according to the method of Fraker, P.J. et al. (Biochem. Biophys. Res. Commun. 80:849 (1978)). After 30 minutes at 4°C, the wells were washed twice with 200 »l of binding buffer and the cell layer was solubilized by adding 100 »l of 0.1 N NaOH. This and a 100 »l wash were counted in a Beckman 5500 gamma counter. The specific counts per minute bound was calculated as [cpm with monoclonal antibody]-[cpm with X63]. All steps, including induction with specific reagents, were carried out in quadruplicate.

A further assay has as its target ICAM-1-LFA-1 adhesion (Homo sapiens, UniProt P05107+P20701). The conditions noted are these: Marlin, S.D., et al., cell 51:813-819 (1987); cited from earlier work.
Assay [3] deals with human umbilical vein endothelial cells (HUVEC). Kind of assay: Radioimmune assay of ICAM-1 expression (¹²⁵I RR1/1 binding) on HUVEC. The class given is cell-based. Here is the method: In order to measure ICAM-1 expression, a radioimmune assay was developed. In this assay, purified RR1/1 was iodinated using iodogen to a specific activity of 10 »Ci/»g. Endothelial cells were grown in 96 well plates and treated as described for each experiment. The plates were cooled at 4°C by placing in a cold room for 0.5-1 hr, not immediately on ice. The monolayers were washed 3x with cold complete media and then incubated 30 m at 4°C with ¹²⁵I RR1/1. The monolayers were then washed 3x with complete media. The bound ¹²⁵I was released using 0.1 N NaOH and counted. The specific activity of the ¹²⁵I RR1/1 was adjusted using unlabeled RR1/1 to obtain a linear signal over the range of antigen densities encountered in this study. Non-specific binding was determined in the presence of a thousand fold excess of unlabeled RR1/1 and was subtracted from total binding to yield the specific binding.

Setting [4] is: IFN-γ (10 U/ml) (18 hr), alone or + cycloheximide 20 »g/ml, actinomycin D 10 »M, mean ± SD.
The mark [5] stands for this setting: IL 1 (10 U/ml) (4 hr), alone or + cycloheximide 20 »g/ml, actinomycin D 10 »M, tunicamycin 2 »g/ml, mean ± SD.
[6] abbreviates: no cytokine, Control (4 hr) 1524 ± 140, cycloheximide 20 »g/ml, actinomycin D 10 »M, tunicamycin 2 »g/ml, mean ± SD.
Where [7] appears, read: no cytokine, Control (4 hr) 11928 ± 600, cycloheximide 20 »g/ml, actinomycin D 10 »M, tunicamycin 2 »g/ml, mean ± SD.

Data on 8 compounds can be found in patent publication EP0365837B1 (DANA FARBER CANCER INSTITUTE, priority 1988, dated 1990).

Where “and” joins values, the source holds several entries; their conditions need not be identical. Identical values can stand only once. Like-named read-outs stand apart in the source and are kept apart here. *1 amine or outer side, *2 acyl side, *3 side chain or, on linkers, in order; H or OH if unused. Where a SMILES comes first, the peptide text is derived from it. Bridges are numbered along the chain shown (N, C = ends). Roman numbers before positions name the chains, in order. [ ]: non-standard residue; d: D form. Actinocin(9to1) = Cc1c2oc3c(C)ccc(C(=O)[*:1])c3nc-2c(C(=O)[*:2])c(N)c1=O; NMeV = CN[C@H](C(=O)O)C(C)C; Sar = CNCC(=O)O

Sequence of ICAM-1-LFA-1 adhesion (P20701 26-1170): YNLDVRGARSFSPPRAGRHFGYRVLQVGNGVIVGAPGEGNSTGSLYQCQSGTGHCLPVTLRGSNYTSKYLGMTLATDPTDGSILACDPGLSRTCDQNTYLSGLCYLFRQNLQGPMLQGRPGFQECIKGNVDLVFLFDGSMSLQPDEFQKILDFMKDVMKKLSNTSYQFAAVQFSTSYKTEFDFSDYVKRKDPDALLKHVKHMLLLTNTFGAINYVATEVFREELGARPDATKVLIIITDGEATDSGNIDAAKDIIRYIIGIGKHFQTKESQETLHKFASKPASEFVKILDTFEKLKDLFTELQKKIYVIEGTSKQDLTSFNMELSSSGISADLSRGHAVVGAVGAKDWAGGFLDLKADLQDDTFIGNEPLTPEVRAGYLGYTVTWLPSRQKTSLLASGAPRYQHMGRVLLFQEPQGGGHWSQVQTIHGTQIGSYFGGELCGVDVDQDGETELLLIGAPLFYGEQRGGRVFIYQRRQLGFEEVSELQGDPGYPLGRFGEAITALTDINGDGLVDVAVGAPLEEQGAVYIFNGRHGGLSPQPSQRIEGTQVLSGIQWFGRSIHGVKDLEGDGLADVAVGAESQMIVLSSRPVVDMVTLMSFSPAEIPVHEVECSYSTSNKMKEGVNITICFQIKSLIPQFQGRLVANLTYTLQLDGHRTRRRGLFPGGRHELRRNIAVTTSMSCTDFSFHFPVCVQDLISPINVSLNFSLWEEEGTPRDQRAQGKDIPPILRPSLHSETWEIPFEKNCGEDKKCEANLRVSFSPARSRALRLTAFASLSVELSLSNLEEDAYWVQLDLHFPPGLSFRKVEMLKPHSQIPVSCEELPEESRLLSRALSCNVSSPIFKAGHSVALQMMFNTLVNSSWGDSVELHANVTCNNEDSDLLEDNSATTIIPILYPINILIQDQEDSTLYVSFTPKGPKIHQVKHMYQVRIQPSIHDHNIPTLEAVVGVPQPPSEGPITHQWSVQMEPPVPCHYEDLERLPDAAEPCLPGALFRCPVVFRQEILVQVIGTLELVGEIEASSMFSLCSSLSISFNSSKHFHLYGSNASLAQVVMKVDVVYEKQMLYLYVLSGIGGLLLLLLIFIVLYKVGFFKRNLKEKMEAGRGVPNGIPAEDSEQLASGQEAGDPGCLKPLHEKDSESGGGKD
Sequence of ICAM-1-LFA-1 adhesion (P05107 23-769): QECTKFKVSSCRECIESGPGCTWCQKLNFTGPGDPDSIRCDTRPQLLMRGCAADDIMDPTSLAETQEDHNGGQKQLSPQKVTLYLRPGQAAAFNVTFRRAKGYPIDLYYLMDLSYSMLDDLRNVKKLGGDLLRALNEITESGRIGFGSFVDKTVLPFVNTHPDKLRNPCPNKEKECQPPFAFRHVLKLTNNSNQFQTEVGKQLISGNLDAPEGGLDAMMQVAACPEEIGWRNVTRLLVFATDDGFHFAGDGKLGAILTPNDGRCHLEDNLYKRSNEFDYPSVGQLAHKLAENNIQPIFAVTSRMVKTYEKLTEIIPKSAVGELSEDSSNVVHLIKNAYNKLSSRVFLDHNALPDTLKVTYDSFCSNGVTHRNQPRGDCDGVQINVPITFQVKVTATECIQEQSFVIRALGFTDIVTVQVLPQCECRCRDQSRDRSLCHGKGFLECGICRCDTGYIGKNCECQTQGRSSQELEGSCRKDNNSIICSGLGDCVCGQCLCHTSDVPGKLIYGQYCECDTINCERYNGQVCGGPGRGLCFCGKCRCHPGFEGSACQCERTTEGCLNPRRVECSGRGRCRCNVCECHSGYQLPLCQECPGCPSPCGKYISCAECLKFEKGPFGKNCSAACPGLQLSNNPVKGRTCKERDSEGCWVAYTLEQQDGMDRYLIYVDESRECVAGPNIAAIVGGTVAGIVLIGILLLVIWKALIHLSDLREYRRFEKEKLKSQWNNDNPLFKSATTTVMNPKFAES

As a reminder, the inhibition is how much of the control response was suppressed. A higher inhibition goes with a strong effect. Turning to `Cn1cnc([N+](=O)[O-])c1Sc1ncnc2nc[nH]c12` [Azathioprine], the “³HT Incorporation (CPM)” value in assay [1] is given as 42,710 CPM. Also, at 0.001 µg/mL the inhibition in assay [2] was 14%.
As to `CCCCCCCCCCCCCC(=O)O[C@@H]1[C@@H](C)[C@@]2(O)[C@@H](C=C(CO)C[C@]3(O)C(=O)C(C)=C[C@@H]23)[C@@H]2C(C)(C)[C@]12OC(C)=O` [PMA, phorbol myristate acetate], the “JY cells in aggregates” value in the assay on JY cells turned out to be 87%.
On to `Cc1c2oc3c(C)ccc(C(=O)N[C@@H]4C(=O)N[C@H](C(C)C)C(=O)N5CCC[C@H]5C(=O)N(C)CC(=O)N(C)[C@@H](C(C)C)C(=O)O[C@@H]4C)c3nc-2c(C(=O)N[C@@H]2C(=O)N[C@H](C(C)C)C(=O)N3CCC[C@H]3C(=O)N(C)CC(=O)N(C)[C@@H](C(C)C)C(=O)O[C@@H]2C)c(N)c1=O` [actinomycin D] (I: T[dV]P[Sar][NMeV] / II: T[dV]P[Sar][NMeV]; ester I:1-I:C, II:1-II:C; linker I:N-II:N via Actinocin(9to1)), for which the entries for the “¹²⁵I Goat Anti-Mouse IgG Specifically Bound (cpm) anti-HLA-A,B,C” value with human dermal fibroblasts (setting [4]), in the assay on human dermal fibroblasts (setting [5]) and in the assay on human dermal fibroblasts (setting [7]) were 12089 ± 550 cpm, 12294 ± 123 cpm and 12276 ± 608 cpm, respectively. Besides, the “¹²⁵I Goat Anti-Mouse IgG Specifically Bound (cpm) anti-ICAM-1” value worked out at 1326 ± 186 cpm in the assay with human dermal fibroblasts (setting [4]), 1613 ± 88 cpm in the assay with human dermal fibroblasts (setting [5]) and 1590 ± 46 cpm in the assay on human dermal fibroblasts (setting [6]). In the assay with human dermal fibroblasts (cycloheximide 20 »g/ml, actinomycin D 10 »M), the “effects of both interleukin 1 and gamma interferon on ICAM-1 expression on fibroblasts” value was “abolish”.
Consider `C[C@@H]1C[C@@H]([C@H](O)CC2CC(=O)NC(=O)C2)C(=O)[C@@H](C)C1` [cycloheximide], for which, in the assay with human dermal fibroblasts, the “¹²⁵I Goat Anti-Mouse IgG Specifically Bound (cpm) anti-HLA-A,B,C” value is 10675 ± 800 cpm and 10678 ± 471 cpm and 12676 ± 446 cpm; the “¹²⁵I Goat Anti-Mouse IgG Specifically Bound (cpm) anti-ICAM-1” value was 1461 ± 59 cpm and 1513 ± 210 cpm and 1619 ± 381 cpm.
Regarding GRGDSP, the “inhibit ICAM-1-LFA-1 adhesion” value at ICAM-1-LFA-1 adhesion is “failure”.
In the case of GRGESP, on ICAM-1-LFA-1 adhesion, the “inhibit ICAM-1-LFA-1 adhesion” value is listed as “failure”.
As for polymyxin B, the “¹²⁵I Specifically bound (CPM)” value in assay [3] (HUVEC, 16 hr, 100 ng/ml rIL-1 beta, 50 ng/ml rIL-1 alpha, 50 ng/ml rTNF alpha, 10 »g/ml LPS, 10 ng/ml rIFN gamma, polymyxin B 10 »g/ml, control 603 ± 11) was 480 ± 23 CPM. Moreover, in assay [3] (polymyxin B at 10 »g/ml, cells in low endotoxin serum, additional decrease), the “decreased ICAM-1 expression (basal)” value is recorded as 25%.
tunicamycin: the “¹²⁵I Goat Anti-Mouse IgG Specifically Bound (cpm) anti-HLA-A,B,C” value in the assay on human dermal fibroblasts (setting [5]) amounted to 13434 ± 661 cpm; in the assay on human dermal fibroblasts (setting [7]) it was 12340 ± 940 cpm. Moreover, the “¹²⁵I Goat Anti-Mouse IgG Specifically Bound (cpm) anti-ICAM-1” value in the assay on human dermal fibroblasts (setting [5]) was determined as 3084 ± 113 cpm; in the assay on human dermal fibroblasts (setting [6]) it was 1461 ± 176 cpm. In addition, the “inhibited the interleukin 1 effect on ICAM-1 expression” value with human dermal fibroblasts (fibroblasts, tunicamycin 2 »g/ml) is recorded as 43%.
